Results on 16 compounds are retold here after patent publication US11505573B2, “Peptide macrocycles against Acinetobacter baumannii” (Hoffmann-La Roche Inc., priority 2018, dated 2022).

Structures are written as SMILES. pIC50: −log10 of the molar value.

The test system of the test is A. baumannii ATCC 17978. Description: Antimicrobial susceptibility testing: 50% growth inhibitory concentration (IC50) determination in Iso-Sensitest broth. It is filed as cell-based. To be noted: Acinetobacter baumannii; A. baumannii strain ATCC17978; Iso-Sensitest medium; OD 600 nm over 16 h; 35±2° C.; read-out: IC50 ATCC17978 (50% growth inhibition concentration). Here is the method:
Antimicrobial Susceptibility Testing: 50% Growth Inhibitory Concentration (IC50) Determination The in vitro antimicrobial activity of the compounds was alternatively determined according to the following procedure: The assay used a 10-points Iso-Sensitest broth medium to measure quantitatively the in vitro activity of the compounds against A. baumannii ATCC 17978. Stock compounds in DMSO were serially twofold diluted (e.g. range from 10 to 0.02 μM final concentration) in 384 wells microtiter plates and inoculated with 49 μl the bacterial suspension in Iso-Sensitest medium to have a final cell concentration of ˜5×10^(5) CFU/ml in a final volume/well of […] Microtiter plates were incubated at 35±2° C. Bacterial cell growth was determined by the measurement of optical density at λ=600 nm each 20 minutes over a time course of 16 h. Growth inhibition was calculated during the logarithmic growth of the bacterial cells by determination of the concentration inhibiting 50% (IC50) and 90% (IC90) of the growth. Table 1 provides the 50% growth inhibitory concentrations (IC50) in micromoles per liter of the compounds of present invention obtained against the A. baumannnii strain ATCC17978.

For `CN1C(=O)[C@H](CCCCN)NC(=O)[C@H](CCCN)NCc2cccnc2Sc2c(Cl)ccc(-c3ccc(S(=O)(=O)O)cc3)c2CNC(=O)[C@@H]1Cc1c[nH]c2ccccc12` [Example 1.00, 4-[(11S,14S,17S)-14-(4-Aminobutyl)-11-(3-aminopropyl)-25-chloro-17-(1H-indol-3-ylmethyl)-16-methyl-12,15,18-trioxo-2-thia-4,10,13,16,19-pentazatricyclo[19.4.0.03,8]pentacosa-1(25),3,5,7,21,23-hexaen-22-yl]benzenesulfonic acid], the pIC50 is 7.70. Turning to `CN1C(=O)[C@H](CCCCN)NC(=O)[C@H](CCCN)NCc2cccnc2Sc2c(Cl)ccc(-c3ccc4nn[nH]c4c3)c2CNC(=O)[C@@H]1Cc1c[nH]c2ccccc12` [Example 1.01, (11S,14S,17S)-14-(4-aminobutyl)-11-(3-aminopropyl)-22-(3H-benzotriazol-5-yl)-25-chloro-17-(1H-indol-3-ylmethyl)-16-methyl-2-thia-4,10,13,16,19-pentazatricyclo[19.4.0.03,8]pentacosa-1(25),3,5,7,21,23-hexaene-12,15,18-trione], the pIC50 is 7.70. As for `CN1C(=O)[C@H](CCCCN)NC(=O)[C@H](CCCN)NCc2cccnc2Sc2c(Cl)ccc(-c3ccc(-c4nnn[nH]4)cc3)c2CNC(=O)[C@@H]1Cc1c[nH]c2ccccc12` [Example 1.02, (11S,14S,17S)-14-(4-aminobutyl)-11-(3-aminopropyl)-25-chloro-17-(1H-indol-3-ylmethyl)-16-methyl-22-[4-(1H-tetrazol-5-yl)phenyl]-2-thia-4,10,13,16,19-pentazatricyclo[19.4.0.03,8]pentacosa-1(25),3,5,7,21,23-hexaene-12,15,18-trione], the pIC50 is 7.00.

As to `CN1C(=O)[C@H](CCCCN)NC(=O)[C@H](CCCN)NCc2cccnc2Sc2c(Cl)ccc(-c3cccc(-c4nnn[nH]4)c3)c2CNC(=O)[C@@H]1Cc1c[nH]c2ccccc12` [Example 1.03, (11S,14S,17S)-14-(4-aminobutyl)-11-(3-aminopropyl)-25-chloro-17-(1H-indol-3-ylmethyl)-16-methyl-22-[3-(1H-tetrazol-5-yl)phenyl]-2-thia-4,10,13,16,19-pentazatricyclo[19.4.0.03,8]pentacosa-1(25),3,5,7,21,23-hexaene-12,15,18-trione], the pIC50 is 6.44. Then `CC(=O)NS(=O)(=O)c1ccc(-c2ccc(Cl)c3c2CNC(=O)[C@H](Cc2c[nH]c4ccccc24)N(C)C(=O)[C@H](CCCCN)NC(=O)[C@H](CCCN)NCc2cccnc2S3)cc1` [Example 1.04, N-[4-[(11S,14S,17S)-14-(4-aminobutyl)-11-(3-aminopropyl)-25-chloro-17-(1H-indol-3-ylmethyl)-16-methyl-12,15,18-trioxo-2-thia-4,10,13,16,19-pentazatricyclo[19.4.0.03,8]pentacosa-1(21),3,5,7,22,24-hexaen-22-yl]phenyl]sulfonylacetamide], with 7.70. Then `CN1C(=O)[C@H](CCCCN)NC(=O)[C@H](CCCN)NCc2cccnc2Sc2c(Cl)ccc(-c3cnc(=O)[nH]c3)c2CNC(=O)[C@@H]1Cc1c[nH]c2ccccc12` [Example 1.05, (11S,14S,17S)-14-(4-aminobutyl)-11-(3-aminopropyl)-25-chloro-17-(1H-indol-3-ylmethyl)-16-methyl-22-(2-oxo-1H-pyrimidin-5-yl)-2-thia-4,10,13,16,19-pentazatricyclo[19.4.0.03,8]pentacosa-1(25),3,5,7,21,23-hexaene-12,15,18-trione], with 7.70; and `CN1C(=O)[C@H](CCCCN)NC(=O)[C@H](CCCN)NCc2cccnc2Sc2c(Cl)ccc(-c3ccn(Cc4nnn[nH]4)c(=O)c3)c2CNC(=O)[C@@H]1Cc1c[nH]c2ccccc12` [Example 2.00, (11S,14S,17S)-14-(4-Aminobutyl)-11-(3-aminopropyl)-25-chloro-17-(1H-indol-3-ylmethyl)-16-methyl-22-[2-oxo-1-(1H-tetrazol-5-ylmethyl)-4-pyridyl]-2-thia-4,10,13,16,19-pentazatricyclo[19.4.0.03,8]pentacosa-1(25), 3(8),4,6,21,23-hexaene-12,15,18-trione], with 7.10; and `CN1C(=O)[C@H](CCCCN)NC(=O)[C@H](CCCN)NCc2cccnc2Sc2c(Cl)ccc(-c3ccc(-c4nsc(=O)[nH]4)cc3)c2CNC(=O)[C@@H]1Cc1c[nH]c2ccccc12` [Example 3.00, (11S,14S,17S)-14-(4-Aminobutyl)-11-(3-aminopropyl)-25-chloro-17-(1H-indol-3-ylmethyl)-16-methyl-22-[4-(5-oxo-4H-1,2,4-thiadiazol-3-yl)phenyl]-2-thia-4,10,13,16,19-pentazatricyclo[19.4.0.03,8]pentacosa-1(25), 3(8),4,6,21,23-hexaene-12,15,18-trione], with 7.10. Then `CN1C(=O)[C@H](CCCCN)NC(=O)[C@H](CCCN)NCc2cccnc2Sc2c(Cl)ccc(-c3ccc(-c4noc(=O)[nH]4)cc3)c2CNC(=O)[C@@H]1Cc1c[nH]c2ccccc12` [Example 4.00, (11S,14S,17S)-14-(4-Aminobutyl)-11-(3-aminopropyl)-25-chloro-17-(1H-indol-3-ylmethyl)-16-methyl-22-[4-(5-oxo-4H-1,2,4-oxadiazol-3-yl)phenyl]-2-thia-4,10,13,16,19-pentazatricyclo[19.4.0.03,8]pentacosa-1(25), 3(8),4,6,21,23-hexaene-12,15,18-trione], with 7.70; and `CN1C(=O)[C@H](CCCCN)NC(=O)[C@H](CCCN)NCc2cccnc2Sc2cccc(-c3ccc(-c4nnn[nH]4)cc3)c2CNC(=O)[C@@H]1Cc1c[nH]c2ccccc12` [Example 5.00, (11S,14S,17S)-14-(4-Aminobutyl)-1-(3-aminopropyl)-17-(1H-indol-3-ylmethyl)-16-methyl-22-[4-(1H-tetrazol-5-yl)phenyl]-2-thia-4,10,13,16,19-pentazatricyclo[19.4.0.03,8]pentacosa-1(25), 3(8),4,6,21,23-hexaene-12,15,18-trione], with 7.70; and `CN1C(=O)[C@H](CCCCN)NC(=O)[C@H](CCCN)NCc2nccnc2Sc2c(Cl)ccc(-c3ccc(S(=O)(=O)O)cc3)c2CNC(=O)[C@@H]1Cc1c[nH]c2ccccc12` [Example 6.00, 4-[(11S,14S,17S)-14-(4-Aminobutyl)-1-(3-aminopropyl)-25-chloro-17-(1H-indol-3-ylmethyl)-16-methyl-12,15,18-trioxo-2-thia-4,7,10,13,16,19-hexazatricyclo[19.4.0.03,8]pentacosa-1(25), 3(8),4,6,21,23-hexaen-22-yl]benzenesulfonic acid], with 7.70. Consider `CN1C(=O)[C@H](CCCCN)NC(=O)[C@H](CCCN)NCc2cccnc2Sc2c(F)ccc(-c3ccc(S(=O)(=O)O)cc3)c2CNC(=O)[C@@H]1Cc1c[nH]c2ccccc12` [Example 7.00, 4-[(11S,14S,17S)-14-(4-Aminobutyl)-11-(3-aminopropyl)-25-fluoro-17-(1H-indol-3-ylmethyl)-16-methyl-12,15,18-trioxo-2-thia-4,10,13,16,19-pentazatricyclo[19.4.0.03,8]pentacosa-1(25), 3(8),4,6,21,23-hexaen-22-yl]benzenesulfonic acid], for which the pIC50 is 7.70.

For the compound `CN1C(=O)[C@H](CCCCN)NC(=O)[C@H](CCCN)NCc2cccnc2Sc2c(F)ccc(-c3ccc(-c4nnn[nH]4)cc3)c2CNC(=O)[C@@H]1Cc1c[nH]c2ccccc12` [Example 7.01, (11S,14S,17S)-14-(4-aminobutyl)-11-(3-aminopropyl)-25-fluoro-17-(1H-indol-3-ylmethyl)-16-methyl-22-[4-(1H-tetrazol-5-yl)phenyl]-2-thia-4,10,13,16,19-pentazatricyclo[19.4.0.03,8]pentacosa-1(25),3(8),4,6,21,23-hexaene-12,15,18-trione], the pIC50 was 7.70. As for `CC(=O)NS(=O)(=O)c1ccc(-c2ccc(F)c3c2CNC(=O)[C@H](Cc2c[nH]c4ccccc24)N(C)C(=O)[C@H](CCCCN)NC(=O)[C@H](CCCN)NCc2cccnc2S3)cc1` [Example 7.02, N-[4-[(11S,14S,17S)-14-(4-aminobutyl)-11-(3-aminopropyl)-25-fluoro-17-(1H-indol-3-ylmethyl)-16-methyl-12,15,18-trioxo-2-thia-4,10,13,16,19-pentazatricyclo[19.4.0.03,8]pentacosa-1(25),3(8),4,6,21,23-hexaen-22-yl]phenyl]sulfonylacetamide], the figure is 7.52; as for `CN1C(=O)[C@H](CCCCN)NC(=O)[C@H](CCCN)NCc2cccnc2Sc2c(F)ccc(-c3ccc(C(=O)NS(C)(=O)=O)cc3)c2CNC(=O)[C@@H]1Cc1c[nH]c2ccccc12` [Example 7.03, 4-[(11S,14S,17S)-14-(4-aminobutyl)-11-(3-aminopropyl)-25-fluoro-17-(1H-indol-3-ylmethyl)-16-methyl-12,15,18-trioxo-2-thia-4,10,13,16,19-pentazatricyclo[19.4.0.03,8]pentacosa-1(25),3(8),4,6,21,23-hexaen-22-yl]-N-methylsulfonyl-benzamide], 7.40; as for `CN1C(=O)[C@H](CCCN)NC(=O)[C@H](CCCN)NCc2cccnc2Sc2c(Cl)ccc(-c3ccc(S(=O)(=O)O)cc3)c2CNC(=O)[C@@H]1Cc1c[nH]c2ccccc12` [Example 8.00, 4-[(11S,14S,17S)-11,14-Bis(3-aminopropyl)-25-chloro-17-(1H-indol-3-ylmethyl)-16-methyl-12,15,18-trioxo-2-thia-4,10,13,16,19-pentazatricyclo[19.4.0.03,8]pentacosa-1(21),3,5,7,22,24-hexaen-22-yl]benzenesulfonic acid], 7.70.
